Experiments:
IKZF2 (Helios) [1] = biological target: T1, IKZF2 (Helios) (Homo sapiens, UniProt Q96SW2+Q9UKS7); assay: IKZF2 reporter degradation assay (HEK 293T IKZF2-mNeonGreen reporter cell line); assay type: cell-based; details: @ 1 μM, HEK 293T IKZF2-mNeonGreen reporter, 24 hours incubation; for inhibition at 1 µM: HEK-293T, 24 h
T1 construct: Leu-Asp junction (codons ctcgac before the linker); mScarlet (behind P2A) (C, cleaved yes); expressed in transfected cells
From the text: (§1) Polycistronic plasmids were constructed for the mammalian expression of fluorescent reporter fusions of human transcription factors IKZF1 (Ikaros), IKZF2 (Helios), and IKZF3 (Aiolos). The respective protein sequences had their C-terminal end joined to a GGGGS linker repeated three times followed by mNeonGreen, P2A sequence, and mScarlet. The DNA sequences of the open reading frames are as follows:
(§2) IKZF1, IKZF2, and IKZF3 constructs were cloned into the UCOE Hygromycin expression vectors (Millipore Sigma). Reporter constructs were transfected using cationic lipid reagents into adherent HEK 293T cells and stable integrants were selected by treatment with 200 μg/mL hygromycin B. Clonal populations were obtained from the population of stable integrants either by limiting dilution or fluorescence activated cell sorting.
(§3) The clonal stable cell lines were maintained under constant 200 μg/mL hygromycin B selection while being passaged for use in the degradation assays. […] The fluorescence intensity of the IKZF1/2/3-mNeonGreen (FITC channel) and mScarlet (PE channel) reporters were routinely analyzed by flow cytometry to confirm consistent expression levels between experiments.
(§4) The IKZF1/IKZF2/IKZF3 degradation assays were carried out by harvesting the HEK 293T reporter cell lines and resuspending the cells in media formulated for reduced background fluorescence (FluoroBrite; Thermo Fisher). The respective cell lines were seeded at a density of 4000 cells/well into black-walled 384-well optical grade assay tissue culture plates. The cells were incubated overnight at 37° C. to allow for attachment to the assay plate. Dilutions of the compounds were prepared in DMSO from 10 mM compound stocks. The assay plates were treated with appropriate concentrations of the compounds by dispensing the DMSO dilutions in quadruplicate wells with an upper limit of 0.5% final DMSO.
(§5) After 24 hours incubation with the compounds, the assay plates were imaged on an ImageXpress Pico microscopy system (cells maintained at 37° C. during imaging) to obtain the fluorescent readouts. The assay plates were imaged in the FITC and Tetramethylrhodamine (TRITC) channels to obtain the mNeonGreen fluorescence intensity (reporter degradation data) and mScarlet fluorescence intensity (for cell segmentation). 293T-IKZF1 and 293T-IKZF3 reporter cell lines were imaged with exposures of 500 milliseconds (ms) for both FITC and TRITC channels, while the 293T-IKZF2 reporter cell line was imaged with exposures of 1000 ms for FITC and 1250 ms for TRITC. The resulting data was analyzed with Cell Reporter Xpress software using the 2-channel cell scoring analysis with a “percent positive” readout. The TRITC channel was selected for the “nuclei” segmentation with a threshold of 20 while the FITC channel was selected for the “Marker 1” segmentation and a threshold of 100 for the IKZF1 and IKZF3 reporter lines. […] The minimum segmentation width was set to 6 micrometers and the maximum segmentation width was set to 15 micrometers for all cell lines. The DC50 calculations were determined by regression to best fit four-parameter logistic curves using GraphPad Prism.

IKZF2 (Helios) [2] = biological target: T2, IKZF2 (Helios) (Homo sapiens, UniProt Q9UKS7); assay: as above; assay type: cell-based; details: HEK 293T IKZF2-mNeonGreen reporter, 24 hours incubation
T2 construct: Leu-Asp junction (codons ctcgac before the linker); mScarlet (behind P2A) (C, cleaved yes); expressed in transfected cells
From the text: as §1, §2, §3, §4, §5

IKZF3 (Aiolos) = biological target: T3, IKZF3 (Aiolos) (Homo sapiens, UniProt Q9UKT9); assay: IKZF3 reporter degradation assay (HEK 293T IKZF3-mNeonGreen reporter cell line); assay type: cell-based; details: HEK 293T IKZF3-mNeonGreen reporter, 24 hours incubation
T3 construct: Leu-Asp junction (codons ctcgac before the linker); mScarlet (behind P2A) (C, cleaved yes); expressed in transfected cells
From the text: as §1, §2, §3, §4, §5

[3] = biological target: T4, human E3 ligase component cereblon (CRBN) (Homo sapiens, UniProt Q96SW2); assay: Cereblon (CRBN) target engagement, NanoBRET TE Intracellular E3 Ligase Assay in transfected HEK-293T cells; details: read-out: CRBN Binding EC50
T4 construct: host or cells: HEK293T
Procedure: HEK293T cells were harvested ca. 75% confluent with trypsin and plated (500,000 cells/well) in a 6-well tissue culture plate in 2 mL of Dulbecco's Modified Eagle Medium (DMEM)^+10% Fetal Bovine Serum (FBS) and incubated overnight at 37° C.
The NanoLuc-CRBN fusion vector (Nluc-CRBN; Promega) contains the coding region of human E3 ligase component cereblon (CRBN) fused to the C-terminus of the NanoLuc luciferase coding region. A mixture of 10 ng Nluc-CRBN and 990 ng DDB1 Expression Vector (Promega) was added to 125 μL Opti-Minimum Essential Medium (Opti-MEM™; Thermo Fisher) along with […] P3000 reagent (Thermo Fisher) in a 1.5 mL epppendorf tube. This solution was added to Lipofectamine 3000 transfection reagent (5 μL; Thermo Fisher) in Opti-MEM (125 μL), mixed well, and incubated for 15 minutes at room temperature. The transfection mixture was added dropwise to cells and incubated overnight at 37° C., 5% CO2. Following transfection, cells were washed once with PBS, and trypsin (250 μL) was added and incubated 30-45 see to dislodge cells. Complete media (2 mL) was added to resuspend cells to form a single cell suspension. Cells were centrifuged at 320×g for 5 min at room temperature, the supernatant was removed, and the cell pellet resuspended in Opti-MEM (3 mL; wash step repeated ×2). After final resuspension in 5 mL Opti-MEM, cells were counted and resuspended at 200,000 cells/mL in Opti-MEM.
Cereblon target engagement was monitored by Bioluminescence Resonance Energy Transfer (BRET) in transfected HEK-293T cells using the NanoBRET TE Intracellular E3 Ligase Assay (Promega). Briefly, 384-well plates (white opaque plates, Corning 3574, low binding surface) were seeded with transfected HEK-293T cells (38 μL/well). 2 μL of 10 μM CRBN tracer (diluted 1:5 in Tracer Dilution Buffer) was added to each well. Plates were centrifuged at 320×g for 1 min at room temperature. Test compounds were added in a 11-point dilution series (typically 10 μM to 100 pM) using a TECAN D300e Digital Dispenser. Plates were shaken for 2 minutes on a microplate shaker to mix compounds. Plates were centrifuged at 320×g for 1 min at room temperature, and subsequently incubated for 2 hours at 37° C.
After incubation, plates were allowed to cool to room temperature for 15 minutes. 20 μL of 3× Complete NanoBRET™ Nano-Glo® Substrate plus Inhibitor Solution (Promega, 1:166 Substrate and 1:500 dilution of Extracellular NanoLuc® Inhibitor diluted in Opti-MEM) were added to each well. Plates were incubated with shaking at room temperature for 3 minutes covered with foil. Plates were read on a CLARIOstar microplate reader (BMG LabTech), measuring at 450 nm (donor emission) and 610 nm (acceptor emission). The IC50 values were determined by regression to best fit four-parameter logistic curves using GraphPad Prism.

T4 sequence (Q96SW2 whole entry): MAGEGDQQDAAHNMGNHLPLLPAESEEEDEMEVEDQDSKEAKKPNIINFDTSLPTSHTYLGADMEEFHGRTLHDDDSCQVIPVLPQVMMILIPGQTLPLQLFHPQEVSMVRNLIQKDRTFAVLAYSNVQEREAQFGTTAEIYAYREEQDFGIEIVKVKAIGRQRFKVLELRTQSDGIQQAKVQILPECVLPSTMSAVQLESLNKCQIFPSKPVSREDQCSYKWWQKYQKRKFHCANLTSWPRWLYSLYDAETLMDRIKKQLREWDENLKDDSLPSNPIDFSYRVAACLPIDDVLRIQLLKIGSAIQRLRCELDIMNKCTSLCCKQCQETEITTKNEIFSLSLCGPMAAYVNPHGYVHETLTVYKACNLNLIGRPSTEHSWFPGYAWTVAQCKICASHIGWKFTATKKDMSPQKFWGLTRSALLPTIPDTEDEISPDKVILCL
T4 sequence (Q16531 whole entry partner): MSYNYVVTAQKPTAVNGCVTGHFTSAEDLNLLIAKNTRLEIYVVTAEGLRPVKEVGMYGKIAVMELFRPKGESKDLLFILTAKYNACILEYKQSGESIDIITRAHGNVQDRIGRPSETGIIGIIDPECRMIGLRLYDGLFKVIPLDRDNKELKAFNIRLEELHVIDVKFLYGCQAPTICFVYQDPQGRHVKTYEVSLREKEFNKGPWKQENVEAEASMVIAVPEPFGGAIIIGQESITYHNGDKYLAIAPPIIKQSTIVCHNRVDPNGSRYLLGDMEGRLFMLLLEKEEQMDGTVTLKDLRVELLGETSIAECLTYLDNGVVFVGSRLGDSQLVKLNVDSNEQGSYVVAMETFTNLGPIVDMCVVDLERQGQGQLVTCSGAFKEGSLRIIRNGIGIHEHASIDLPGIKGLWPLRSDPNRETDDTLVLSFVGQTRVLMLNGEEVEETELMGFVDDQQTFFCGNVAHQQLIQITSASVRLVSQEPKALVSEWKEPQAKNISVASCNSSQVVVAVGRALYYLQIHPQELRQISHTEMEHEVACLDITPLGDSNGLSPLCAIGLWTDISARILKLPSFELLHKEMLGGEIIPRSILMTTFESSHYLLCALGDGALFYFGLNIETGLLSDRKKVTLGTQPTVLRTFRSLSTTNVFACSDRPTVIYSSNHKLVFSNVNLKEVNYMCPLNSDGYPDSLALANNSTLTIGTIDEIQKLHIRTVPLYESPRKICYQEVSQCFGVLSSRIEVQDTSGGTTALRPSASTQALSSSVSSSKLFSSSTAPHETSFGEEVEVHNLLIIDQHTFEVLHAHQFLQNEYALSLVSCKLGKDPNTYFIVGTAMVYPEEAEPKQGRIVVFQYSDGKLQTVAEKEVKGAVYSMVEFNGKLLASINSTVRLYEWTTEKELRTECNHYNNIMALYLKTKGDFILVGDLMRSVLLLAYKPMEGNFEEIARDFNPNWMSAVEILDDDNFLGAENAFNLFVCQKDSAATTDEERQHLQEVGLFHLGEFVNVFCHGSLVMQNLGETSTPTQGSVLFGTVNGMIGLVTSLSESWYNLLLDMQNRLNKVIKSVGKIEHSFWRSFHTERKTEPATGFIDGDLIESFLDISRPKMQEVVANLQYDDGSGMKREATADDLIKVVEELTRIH
T3 sequence (Q96SW2 whole entry partner): as the sequence (Q96SW2 whole entry) above
T3 sequence (Q16531 whole entry partner): as the sequence (Q16531 whole entry partner) above
T3 sequence (Q9UKT9 whole entry): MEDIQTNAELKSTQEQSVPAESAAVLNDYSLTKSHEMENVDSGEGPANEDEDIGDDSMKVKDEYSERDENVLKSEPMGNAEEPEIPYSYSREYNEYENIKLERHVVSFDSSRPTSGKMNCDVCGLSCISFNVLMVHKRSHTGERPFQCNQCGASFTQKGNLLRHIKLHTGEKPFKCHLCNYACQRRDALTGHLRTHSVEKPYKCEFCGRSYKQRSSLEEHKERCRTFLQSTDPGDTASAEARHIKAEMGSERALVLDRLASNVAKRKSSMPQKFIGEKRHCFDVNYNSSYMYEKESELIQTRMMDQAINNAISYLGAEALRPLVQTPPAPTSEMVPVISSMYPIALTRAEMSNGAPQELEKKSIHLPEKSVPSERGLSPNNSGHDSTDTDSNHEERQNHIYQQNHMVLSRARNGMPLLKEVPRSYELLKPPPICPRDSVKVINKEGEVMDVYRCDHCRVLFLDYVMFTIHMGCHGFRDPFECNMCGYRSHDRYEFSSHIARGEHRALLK
T1 sequence (Q9UKS7 whole entry): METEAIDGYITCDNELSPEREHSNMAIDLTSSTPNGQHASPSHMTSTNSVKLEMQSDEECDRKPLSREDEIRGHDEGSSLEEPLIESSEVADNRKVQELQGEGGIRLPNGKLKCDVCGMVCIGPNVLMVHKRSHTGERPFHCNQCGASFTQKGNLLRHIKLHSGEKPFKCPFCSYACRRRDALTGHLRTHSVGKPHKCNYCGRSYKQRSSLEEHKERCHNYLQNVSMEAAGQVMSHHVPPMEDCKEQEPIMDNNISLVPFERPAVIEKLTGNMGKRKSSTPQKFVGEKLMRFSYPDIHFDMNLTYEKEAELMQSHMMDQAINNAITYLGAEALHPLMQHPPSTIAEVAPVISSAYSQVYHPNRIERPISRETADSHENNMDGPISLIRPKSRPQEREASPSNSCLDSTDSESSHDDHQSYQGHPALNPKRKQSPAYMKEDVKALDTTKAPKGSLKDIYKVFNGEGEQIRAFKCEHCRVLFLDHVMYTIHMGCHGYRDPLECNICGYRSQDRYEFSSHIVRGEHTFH
T1 sequence (Q96SW2 whole entry): as the sequence (Q96SW2 whole entry) above
T1 sequence (Q16531 whole entry partner): as the sequence (Q16531 whole entry partner) above
T2 sequence (Q9UKS7 whole entry): as the sequence (Q9UKS7 whole entry) above
T2 sequence (Q96SW2 whole entry, further chain): as the sequence (Q96SW2 whole entry) above
T2 sequence (Q16531 whole entry partner): as the sequence (Q16531 whole entry partner) above

| Compound | IKZF2 % Degradation @ 1 μM (IKZF2 (Helios) [1]) [%] | DC50 (IKZF2 (Helios) [2]) [µM] | IKZF3 % Degradation @ 1 μM (IKZF3 (Aiolos); @ 1 μM) [%] | DC50 (IKZF3 (Aiolos)) [µM] | EC50 [3] [µM] | inhibition at 1 µM (IKZF2 (Helios) [1]) [%] | inhibition at 1 µM (IKZF3 (Aiolos); HEK-293T, 24 h, @ 1 μM) [%] |
| --- | --- | --- | --- | --- | --- | --- | --- |
| O=C1CCC(N2Cc3cc(O[C@H]4CCCC[C@@H]4N4CC(c5ccc(C(F)(F)F)cn5)C4)ccc3C2=O)C(=O)N1 (single isomer, unassigned) [Compound 131-B] | 94.1 | 0.005 | 34.3 | 0.0414 | 0.021 | – | – |
| O=C1CCC(N2Cc3cc(O[C@H]4CCCC[C@H]4N4CC(c5ccncc5)C4)ccc3C2=O)C(=O)N1 (single isomer, unassigned) [Compound 136-B] | 61.4 | 0.03 | – | > 30 | 0.034 | – | – |
| O=C1CCC(N2Cc3cc(O[C@H]4CCCC[C@@H]4N4CC(c5ccncc5Cl)C4)ccc3C2=O)C(=O)N1 (single isomer, unassigned) [Compound 95-B] | – | 0.023 | – | > 30 | 0.03 | 77.8 | – |
| O=C1CCC(N2Cc3cc(O[C@H]4CCCC[C@@H]4N4CC(c5ncncc5Cl)C4)ccc3C2=O)C(=O)N1 (single isomer, unassigned) [Compound 92-B] | – | 0.007 | – | > 30 | 0.012 | 81.7 | – |
| O=C1CCC(N2Cc3cc(OC4CCCCC4N4CC(c5ccnnc5)C4)ccc3C2=O)C(=O)N1 (stereo not shown) [Compound 143-B, 3-(1-oxo-5-((2-(3-(pyridazin-4-yl)azetidin-1-yl)cyclohexyl)oxy)isoindolin-2-yl)piperidine-2,6-dione] | – | 0.581 | – | > 30 | 0.247 | 20.4 | – |
| O=C1CCC(N2Cc3cc(O[C@H]4CCCC[C@H]4N4CC(c5ccc(Cl)cn5)C4)ccc3C2=O)C(=O)N1 (single isomer, unassigned) [Compound 98-B] | – | 0.111 | – | – | 0.055 | 41.3 | – |
| Cc1cnccc1C1CN([C@H]2CCCC[C@@H]2Oc2ccc3c(c2)CN(C2CCC(=O)NC2=O)C3=O)C1 (single isomer, unassigned) [Compound 112-B] | – | 0.012 | – | > 30 | 0.02 | 67.1 | – |
| O=C1CCC(N2Cc3cc(O[C@@H]4CCCC[C@@H]4N4CC(c5ccncc5F)C4)ccc3C2=O)C(=O)N1 (mixture of isomers) [Compound 153-B, Rac-3-(5-(((cis)-2-(3-(3-fluoropyridin-4-yl)azetidin-1-yl)cyclohexyl)oxy)-1-oxoisoindolin-2-yl)piperidine-2,6-dione] | – | 0.016 | – | > 30 | 0.032 | 73.4 | – |
| O=C1CCC(N2Cc3cc(O[C@H]4CCCC[C@@H]4N4CC(c5ncncc5Cl)C4)ccc3C2=O)C(=O)N1 (single isomer, unassigned) [Compound 93-B] | 78 | 0.021 | – | > 30 | 0.064 | – | – |
| O=C1CCC(N2Cc3cc(O[C@H]4CCCC[C@@H]4N4CC(c5ccncc5F)C4)ccc3C2=O)C(=O)N1 (single isomer, unassigned) [Compound 102-B] | – | 0.01 | – | > 30 | 0.015 | 71.1 | – |
| O=C1CCC(N2Cc3cc(O[C@H]4CCCC[C@@H]4N4CC(c5ccc(Cl)cn5)C4)ccc3C2=O)C(=O)N1 (single isomer, unassigned) [Compound 100-B] | 80.5 | 0.005 | – | > 30 | 0.02 | – | – |
| O=C1CCC(N2Cc3cc(O[C@H]4CCCC[C@@H]4N4CC(c5ccc(C(F)(F)F)nc5)C4)ccc3C2=O)C(=O)N1 (single isomer, unassigned) [Compound 126-B] | – | 0.006 | – | 0.0866 | 0.007 | 94.8 | 39.5 |
| O=C1CCC(N2Cc3cc(O[C@H]4CCCC[C@@H]4N4CC(c5ccc(C(F)(F)F)nc5)C4)ccc3C2=O)C(=O)N1 (single isomer, unassigned) [Compound 127-B] | 95.4 | 0.006 | 39 | 0.0633 | 0.026 | – | – |
| O=C1CCC(N2Cc3cc(OC4CCCCC4N4CC(c5cccnn5)C4)ccc3C2=O)C(=O)N1 (stereo not shown) [Compound 142-B, 3-(1-oxo-5-((2-(3-(pyridazin-3-yl)azetidin-1-yl)cyclohexyl)oxy)isoindolin-2-yl)piperidine-2,6-dione] | – | 0.605 | – | > 30 | 0.167 | 31.5 | – |
| O=C1CCC(N2Cc3cc(O[C@H]4CCCC[C@@H]4N4CC(c5ccnc6[nH]ccc56)C4)ccc3C2=O)C(=O)N1 (single isomer, unassigned) [Compound 113-B] | – | 0.062 | – | – | 0.03 | 29.7 | – |
| O=C1CCC(N2Cc3cc(OC4CCCC4N4CC(c5cncc(C(F)(F)F)c5)C4)ccc3C2=O)C(=O)N1 (stereo not shown) [Compound 154-B, 3-(1-oxo-5-((2-(3-(5-(trifluoromethyl)pyridin-3-yl)azetidin-1-yl)cyclopentyl)oxy)isoindolin-2-yl)piperidine-2,6-dione] | – | > 30 | – | > 30 | 0.056 | – | – |
| O=C1CCC(N2Cc3cc(O[C@H]4CCCC[C@H]4N4CC(c5cncc(Cl)c5)C4)ccc3C2=O)C(=O)N1 (single isomer, unassigned) [Compound 115-B] | – | 0.177 | – | – | 0.064 | 21.7 | – |
| O=C1CCC(N2Cc3cc(O[C@@H]4CCCC[C@@H]4N4CC(c5ncc(Br)cn5)C4)ccc3C2=O)C(=O)N1 (mixture of isomers) [Compound 138-B, Rac-3-(5-(((cis)-2-(3-(5-bromopyrimidin-2-yl)azetidin-1-yl)cyclohexyl)oxy)-1-oxoisoindolin-2-yl)piperidine-2,6-dione] | – | > 30 | – | > 30 | 0.005 | – | – |

From US20250100996A1, “HETEROCYCLOALKYL AND HETEROARYL COMPOUNDS AND PHARMACEUTICAL COMPOSITIONS THAT MODULATE IKZF2” (Plexium, Inc., priority 2021, published 2025)
